Assay results: ChEMBL document CHEMBL3639236, “Nitrogen containing morphinan derivatives and the use thereof” (2015)

How the values were obtained:
Mu-type opioid receptor = Mu-type opioid receptor (Homo sapiens, UniProt P35372); assay: (§1) Radioligand Dose-Displacement Binding Assay: Radioligand dose-displacement binding assays for u-opioid receptors used 0.3 nM [3H]-diprenorphine (Perkin Elmer, Shelton, Conn.), with […] in a final volume of 500 ul binding buffer (10 mM MgCl2, 1 mM EDTA, 5% DMSO, 50 mM HEPES, pH 7.4). Reactions were carried out in the absence or presence of increasing concentrations of unlabeled naloxone. All reactions were conducted in 96-deep well polypropylene plates for 2 hours at room temperature. Binding reactions were terminated by rapid filtration onto 96-well Unifilter GF/C filter plates (Perkin Elmer, Shelton, Conn.), presoaked in 0.5% polyethylenimine using a 96-well tissue harvester (Perkin Elmer, Shelton, Conn.) followed by performing three filtration washes with 500 ul of ice-cold binding buffer. Filter plates were subsequently dried at 50 C. for 2-3 hours. BetaScint scintillation cocktail (Perkin Elmer, Shelton, Conn.) was added (50 ul/well), and plates were counted using a Packard Top-Counter.
[1] = target: Kappa-type opioid receptor (Homo sapiens, UniProt P41145); assay: as §1
Sequence of Kappa-type opioid receptor (P41145 whole entry): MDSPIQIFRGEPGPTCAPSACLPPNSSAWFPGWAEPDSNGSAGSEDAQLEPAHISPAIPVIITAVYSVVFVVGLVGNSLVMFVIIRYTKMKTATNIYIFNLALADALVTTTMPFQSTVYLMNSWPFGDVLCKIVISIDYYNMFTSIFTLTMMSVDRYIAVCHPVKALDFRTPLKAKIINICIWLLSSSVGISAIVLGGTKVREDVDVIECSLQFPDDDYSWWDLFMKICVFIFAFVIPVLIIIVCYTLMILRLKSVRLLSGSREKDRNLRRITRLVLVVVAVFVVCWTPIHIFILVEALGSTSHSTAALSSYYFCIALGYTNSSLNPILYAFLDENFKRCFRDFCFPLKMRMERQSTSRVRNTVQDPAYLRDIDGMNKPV

Sequence of Mu-type opioid receptor (P35372 whole entry): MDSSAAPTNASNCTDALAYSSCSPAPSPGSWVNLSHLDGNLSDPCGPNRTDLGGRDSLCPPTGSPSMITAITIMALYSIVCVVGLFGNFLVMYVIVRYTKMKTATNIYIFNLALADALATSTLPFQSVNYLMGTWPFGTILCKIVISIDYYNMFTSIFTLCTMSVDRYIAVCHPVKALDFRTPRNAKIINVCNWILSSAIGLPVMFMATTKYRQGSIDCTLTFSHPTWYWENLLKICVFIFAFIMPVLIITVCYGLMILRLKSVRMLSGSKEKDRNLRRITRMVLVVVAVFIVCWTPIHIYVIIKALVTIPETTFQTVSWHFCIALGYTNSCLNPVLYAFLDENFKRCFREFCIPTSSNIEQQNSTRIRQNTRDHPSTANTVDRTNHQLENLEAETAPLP

| SMILES | Ki (Mu-type opioid receptor) [nM] | Ki [1] [nM] |
| --- | --- | --- |
| COc1ccc(CN2C=C3[C@H]4Cc5ccc(OC)cc5[C@@]3(CCN4CC3CC3)CC2=O)cc1 | 218 | 13.1 |
| COc1ccc(CN2C[C@H]3[C@H]4Cc5ccc(OC)cc5[C@@]3(CCN4CC3CC3)CC2=O)cc1 | – | 411 |
